This data set deals with circulating neutrophils. The settings on record: day 5; two i.p. injections, total 250 mg/kg (150 mg/kg day 1, 100 mg/kg day 4).

From the text: We first examined neutrophil recruitment and its bacteria-killing capability under neutropenic conditions. We induced neutropenia using a widely used chemotherapeutic drug, cyclophosphamide (Cy), which is used primarily to treat cancer.
We also examined neutrophil recruitment and its bacteria-killing capability under neutropenic conditions. We induced neutropenia using a widely used chemotherapeutic drug, cyclophosphamide (Cy).

For `O=P1(N(CCCl)CCCl)NCCCO1` (stereo not shown) [Cy, cyclophosphamide], the “fewer circulating neutrophils than the untreated group” value is “approximately 90%”.

For the origin of these results see patent publication US20110002877A1, “PTEN Inhibitors Treat Neutropenia-Associated Pneumonia” (priority 2009, published 2011).
